Here are results for 4 compounds from patent EP1043318A1 (priority 1997, dated 1999).

SMILES strings stand for the structures.

This experiment relates to M. tuberculosis 16R. The experiment is classed as cell-based. The conditions noted are these: strain resistant to control preparations; concentration of the preparation 50.0 g/l (table title); incubated 30 days.
For `CC[C@@H](CO)NCCN[C@@H](CC)CO` [Ethambutol], the “M. tuberculosis 16R growth” value is “growth”. As to `NNC(=O)c1ccncc1` [Isoniazid], the “M. tuberculosis 16R growth” value is on record as “growth”. In the case of `[H]/N=C(/N)N[C@H]1[C@H](O)[C@@H](O)[C@H](O[C@@H]2O[C@@H](C)[C@](O)(C=O)[C@H]2O[C@@H]2O[C@@H](CO)[C@H](O)[C@@H](O)[C@@H]2NC)[C@@H](N/C(N)=N\[H])[C@@H]1O` [Streptomycin], the “M. tuberculosis 16R growth” value was “growth”. With `O=C1NC(=S)NC(=O)C1C(c1ccc([N+](=O)[O-])cc1)C1C(=O)NC(=S)NC1=O` [X, 5,5'-(p-nitrobenzylidene)bis (2-thiobarbituric) acid] the entry was “complete suppression of growth”.
